system: Lolium multiflorum (LOLMU); assay: Post-emergence glasshouse test, visual injury, LOLMU; assay type: in vivo; conditions: 336 h, Table 3, post-emergence, 62 g/ha, 14±1 days post application
Method: (§1) Seeds of a variety of test species are grown in a sandy loam soil mixture, Lolium multiflorum (LOLMU), Amaranthus retroflexus (AMARE), Echinochloa crus-gaffi (ECHCG), Veronica persica (VERPE), Glycine max (GLXMA), Oryza sativa (ORYSA), Zea mays (ZEAMX), spring wheat (TRZAS), Ipomoea hederacea (IPOHE), Ipomoea purpurea (PHBPU), Stellaria media (STEME), Solanum nigrum (SOLNI), Digitaria sanguinalis (DIGSA), Setaria italica (SETIT), Alopecurus myosuroides (ALOMY) and Avena fatua (AVEFA).
(§2) After sowing, at growth stage BBCH 12-14 (post-emergence), the plants are sprayed with an aqueous spray solution derived from the formulation of the technical active ingredient in acetone/water (50:50) solution containing 0.5% Tween 20 (polyoxyethlyene sorbitan monolaureate, CAS RN 9005-64-5). The test compounds are applied at the required concentration of active ingredient in g/ha. The test plants are then grown in a glasshouse under controlled environmental conditions and watered regularly as required. After 14±1 days post application (for post-emergence test), the test is evaluated by assessing the percentage damage caused to the plants in comparison with the untreated plots. The biological activities for post-emergence testing are shown below (Table 3 and Table 4) as a % visual injury.

Row | Structure (SMILES) | pest or weed control at 62 g/ha [%]
1 | Cc1cc(-c2cnc(NCc3ccc(F)cn3)nc2C(C)C)on1 [Compound 96] | 0

same assay, conditions: 336 h, Table 3, post-emergence, 125 g/ha, 14±1 days post application

Row | Structure (SMILES) | pest or weed control at 125 g/ha [%]
2 | Cc1cc(-c2cnc(N3Cc4ccccc4C3=N)nc2C(C)C)on1 [Compound 121] | 0
3 | Cc1cc(-c2cnc(NC3CCOCC3)nc2C(F)(F)F)on1 [Compound 116] | 0
4 | Cc1cc(-c2cnc(NC3CCCc4sc(Cl)cc43)nc2C(C)C)on1 (centres unmarked) [Compound 3] | 0
5 | Cc1cc(-c2cnc(NCc3cccc(F)c3)nc2C2CC2)on1 [Compound 85] | 30
6 | Cc1cc(-c2cnc(NC(C)C)nc2C(F)(F)F)on1 [Compound 115] | 0
7 | Cc1cc(-c2cnc(NCC3CCCCC3)nc2C(C)C)on1 [Compound 108] | 0
8 | Cc1cc(-c2cnc(NCc3ccc(F)cc3)nc2C(C)C)on1 [Compound 93] | 60
9 | Cc1cc(-c2cnc(NC3CCc4sc(Cl)cc43)nc2C(C)C)on1 (centres unmarked) [Compound 4] | 0
10 | Cc1cc(-c2cnc(NC3CCCC3)nc2C2CC2)on1 [Compound 13, N-cyclopentyl-4-cyclopropyl-5-(3-methyl-1,2-oxazol-5-yl)pyrimidin-2-amine] | 40
11 | Cc1cc(-c2cnc(NC3CCCC3)nc2C(F)(F)F)on1 [Compound 91] | 80

same assay, conditions: 336 h, Table 3, post-emergence, 250 g/ha, 14±1 days post application

Row | Structure (SMILES) | pest or weed control at 250 g/ha [%]
12 | CCNc1ncc(-c2cc(C)no2)c(C(C)C)n1 [Compound 11] | 0
13 | Cc1cc(-c2cnc(NCc3cccc(F)c3)nc2C2CC2)on1 [Compound 85] | 40
14 | Cc1cc(-c2cnc(NC3CCCC3)nc2C2CC2)on1 [Compound 13, N-cyclopentyl-4-cyclopropyl-5-(3-methyl-1,2-oxazol-5-yl)pyrimidin-2-amine] | 80

same assay, conditions: 336 h, Table 3, post-emergence, 500 g/ha, 14±1 days post application

Row | Structure (SMILES) | pest or weed control at 500 g/ha [%]
15 | Cc1cc(-c2cnc(N3CCCC(O)C3)nc2C2CC2)on1 (centres unmarked) [Compound 57] | 0
16 | Cc1cc(-c2cnc(N3CCCCC3)nc2-c2ccc(C)o2)on1 [Compound 79] | 30
17 | Cc1cc(-c2cnc(NCc3ccc(F)cc3)nc2C(C)(C)C)on1 [Compound 47] | 0

system: Echinochloa crus-gaffi (ECHCG); assay: Post-emergence glasshouse test, visual injury, ECHCG; assay type: in vivo, Echinochloa crus-galli; conditions: 336 h, Table 3, post-emergence, 62 g/ha, 14±1 days post application
Method: as §1, §2

Row | Structure (SMILES) | pest or weed control at 62 g/ha [%]
18 | Cc1cc(-c2cnc(NCc3ccc(F)cn3)nc2C(C)C)on1 [Compound 96] | 40

same assay, conditions: 336 h, Table 3, post-emergence, 125 g/ha, 14±1 days post application

Row | Structure (SMILES) | pest or weed control at 125 g/ha [%]
19 | Cc1cc(-c2cnc(N3Cc4ccccc4C3=N)nc2C(C)C)on1 [Compound 121] | 20
20 | Cc1cc(-c2cnc(NC3CCOCC3)nc2C(F)(F)F)on1 [Compound 116] | 0
21 | Cc1cc(-c2cnc(NC3CCCc4sc(Cl)cc43)nc2C(C)C)on1 (centres unmarked) [Compound 3] | 60
22 | Cc1cc(-c2cnc(NCc3cccc(F)c3)nc2C2CC2)on1 [Compound 85] | 80
23 | Cc1cc(-c2cnc(NC(C)C)nc2C(F)(F)F)on1 [Compound 115] | 0
24 | Cc1cc(-c2cnc(NCC3CCCCC3)nc2C(C)C)on1 [Compound 108] | 20
25 | Cc1cc(-c2cnc(NCc3ccc(F)cc3)nc2C(C)C)on1 [Compound 93] | 80
26 | Cc1cc(-c2cnc(NC3CCc4sc(Cl)cc43)nc2C(C)C)on1 (centres unmarked) [Compound 4] | 50
27 | Cc1cc(-c2cnc(NC3CCCC3)nc2C2CC2)on1 [Compound 13, N-cyclopentyl-4-cyclopropyl-5-(3-methyl-1,2-oxazol-5-yl)pyrimidin-2-amine] | 80
28 | Cc1cc(-c2cnc(NC3CCCC3)nc2C(F)(F)F)on1 [Compound 91] | 95

same assay, conditions: 336 h, Table 3, post-emergence, 250 g/ha, 14±1 days post application

Row | Structure (SMILES) | pest or weed control at 250 g/ha [%]
29 | CCNc1ncc(-c2cc(C)no2)c(C(C)C)n1 [Compound 11] | 80
30 | Cc1cc(-c2cnc(NCc3cccc(F)c3)nc2C2CC2)on1 [Compound 85] | 100
31 | Cc1cc(-c2cnc(NC3CCCC3)nc2C2CC2)on1 [Compound 13, N-cyclopentyl-4-cyclopropyl-5-(3-methyl-1,2-oxazol-5-yl)pyrimidin-2-amine] | 100

same assay, conditions: 336 h, Table 3, post-emergence, 500 g/ha, 14±1 days post application

Row | Structure (SMILES) | pest or weed control at 500 g/ha [%]
32 | Cc1cc(-c2cnc(N3CCCC(O)C3)nc2C2CC2)on1 (centres unmarked) [Compound 57] | 50
33 | Cc1cc(-c2cnc(N3CCCCC3)nc2-c2ccc(C)o2)on1 [Compound 79] | 60
34 | Cc1cc(-c2cnc(NCc3ccc(F)cc3)nc2C(C)(C)C)on1 [Compound 47] | 50

system: Veronica persica (VERPE); assay: Post-emergence glasshouse test, visual injury, VERPE; assay type: in vivo; conditions: 336 h, Table 3, post-emergence, 62 g/ha, 14±1 days post application
Method: as §1, §2

Row | Structure (SMILES) | pest or weed control at 62 g/ha [%]
35 | Cc1cc(-c2cnc(NCc3ccc(F)cn3)nc2C(C)C)on1 [Compound 96] | 50

same assay, conditions: 336 h, Table 3, post-emergence, 125 g/ha, 14±1 days post application

Row | Structure (SMILES) | pest or weed control at 125 g/ha [%]
36 | Cc1cc(-c2cnc(N3Cc4ccccc4C3=N)nc2C(C)C)on1 [Compound 121] | 0
37 | Cc1cc(-c2cnc(NC3CCOCC3)nc2C(F)(F)F)on1 [Compound 116] | 95
38 | Cc1cc(-c2cnc(NC3CCCc4sc(Cl)cc43)nc2C(C)C)on1 (centres unmarked) [Compound 3] | 10
39 | Cc1cc(-c2cnc(NCc3cccc(F)c3)nc2C2CC2)on1 [Compound 85] | 50
40 | Cc1cc(-c2cnc(NC(C)C)nc2C(F)(F)F)on1 [Compound 115] | 60
41 | Cc1cc(-c2cnc(NCC3CCCCC3)nc2C(C)C)on1 [Compound 108] | 50
42 | Cc1cc(-c2cnc(NCc3ccc(F)cc3)nc2C(C)C)on1 [Compound 93] | 100
43 | Cc1cc(-c2cnc(NC3CCc4sc(Cl)cc43)nc2C(C)C)on1 (centres unmarked) [Compound 4] | 98
44 | Cc1cc(-c2cnc(NC3CCCC3)nc2C2CC2)on1 [Compound 13, N-cyclopentyl-4-cyclopropyl-5-(3-methyl-1,2-oxazol-5-yl)pyrimidin-2-amine] | 70
45 | Cc1cc(-c2cnc(NC3CCCC3)nc2C(F)(F)F)on1 [Compound 91] | 99

same assay, conditions: 336 h, Table 3, post-emergence, 250 g/ha, 14±1 days post application

Row | Structure (SMILES) | pest or weed control at 250 g/ha [%]
46 | CCNc1ncc(-c2cc(C)no2)c(C(C)C)n1 [Compound 11] | 70
47 | Cc1cc(-c2cnc(NCc3cccc(F)c3)nc2C2CC2)on1 [Compound 85] | 100
48 | Cc1cc(-c2cnc(NC3CCCC3)nc2C2CC2)on1 [Compound 13, N-cyclopentyl-4-cyclopropyl-5-(3-methyl-1,2-oxazol-5-yl)pyrimidin-2-amine] | 100

same assay, conditions: 336 h, Table 3, post-emergence, 500 g/ha, 14±1 days post application

Row | Structure (SMILES) | pest or weed control at 500 g/ha [%]
49 | Cc1cc(-c2cnc(N3CCCC(O)C3)nc2C2CC2)on1 (centres unmarked) [Compound 57] | 0
50 | Cc1cc(-c2cnc(N3CCCCC3)nc2-c2ccc(C)o2)on1 [Compound 79] | 0
51 | Cc1cc(-c2cnc(NCc3ccc(F)cc3)nc2C(C)(C)C)on1 [Compound 47] | 80

system: Amaranthus retroflexus (AMARE); assay: Post-emergence glasshouse test, visual injury, AMARE; assay type: in vivo; conditions: 336 h, Table 3, post-emergence, 62 g/ha, 14±1 days post application
Method: as §1, §2

Row | Structure (SMILES) | pest or weed control at 62 g/ha [%]
52 | Cc1cc(-c2cnc(NCc3ccc(F)cn3)nc2C(C)C)on1 [Compound 96] | 50

same assay, conditions: 336 h, Table 3, post-emergence, 125 g/ha, 14±1 days post application

Row | Structure (SMILES) | pest or weed control at 125 g/ha [%]
53 | Cc1cc(-c2cnc(N3Cc4ccccc4C3=N)nc2C(C)C)on1 [Compound 121] | 30
54 | Cc1cc(-c2cnc(NC3CCOCC3)nc2C(F)(F)F)on1 [Compound 116] | 0
55 | Cc1cc(-c2cnc(NC3CCCc4sc(Cl)cc43)nc2C(C)C)on1 (centres unmarked) [Compound 3] | 60
56 | Cc1cc(-c2cnc(NCc3cccc(F)c3)nc2C2CC2)on1 [Compound 85] | 95
57 | Cc1cc(-c2cnc(NC(C)C)nc2C(F)(F)F)on1 [Compound 115] | 20
58 | Cc1cc(-c2cnc(NCC3CCCCC3)nc2C(C)C)on1 [Compound 108] | 50
59 | Cc1cc(-c2cnc(NCc3ccc(F)cc3)nc2C(C)C)on1 [Compound 93] | 100
60 | Cc1cc(-c2cnc(NC3CCc4sc(Cl)cc43)nc2C(C)C)on1 (centres unmarked) [Compound 4] | 95
61 | Cc1cc(-c2cnc(NC3CCCC3)nc2C2CC2)on1 [Compound 13, N-cyclopentyl-4-cyclopropyl-5-(3-methyl-1,2-oxazol-5-yl)pyrimidin-2-amine] | 80
62 | Cc1cc(-c2cnc(NC3CCCC3)nc2C(F)(F)F)on1 [Compound 91] | 90

same assay, conditions: 336 h, Table 3, post-emergence, 250 g/ha, 14±1 days post application

Row | Structure (SMILES) | pest or weed control at 250 g/ha [%]
63 | CCNc1ncc(-c2cc(C)no2)c(C(C)C)n1 [Compound 11] | 100
64 | Cc1cc(-c2cnc(NCc3cccc(F)c3)nc2C2CC2)on1 [Compound 85] | 100
65 | Cc1cc(-c2cnc(NC3CCCC3)nc2C2CC2)on1 [Compound 13, N-cyclopentyl-4-cyclopropyl-5-(3-methyl-1,2-oxazol-5-yl)pyrimidin-2-amine] | 100

same assay, conditions: 336 h, Table 3, post-emergence, 500 g/ha, 14±1 days post application

Row | Structure (SMILES) | pest or weed control at 500 g/ha [%]
66 | Cc1cc(-c2cnc(N3CCCC(O)C3)nc2C2CC2)on1 (centres unmarked) [Compound 57] | 70
67 | Cc1cc(-c2cnc(N3CCCCC3)nc2-c2ccc(C)o2)on1 [Compound 79] | 90
68 | Cc1cc(-c2cnc(NCc3ccc(F)cc3)nc2C(C)(C)C)on1 [Compound 47] | 40

— patent US20230329236A1, “HERBICIDAL PYRIMIDINE DERIVATIVES” (MoA Technology Limited, priority 2020, published 2023)
